Laboratory results published in article PMC10545732, “Structure-based drug discovery of a corticotropin-releasing hormone receptor 1 antagonist using an X-ray free-electron laser” (Experimental & Molecular Medicine, 2023).
pIC50, pKi: −log10 of the molar value. Read-outs that look alike come from different tables or passages of the source.

Columns and labels:
PK studies in rats = format: in vivo, SD rats; settings: male, Sprague-Dawley, rat, plasma, SD rats, n = 3
Method: CRF1R antagonist PKs were studied in naïve male SD rats following a single i.v. bolus injection or p.o. gavage. The i.v. injections used Antalarmin, BMK-C203, or BMK-C205 at doses of 5 mg/kg and BMK-I-152 at a dose of 1 mg/kg. The antagonist’s doses in the p.o. injection was 10 mg/kg. Three male SD rats weighing between 220 and 260 g were used to evaluate CRF1R antagonist PKs. The vehicle used for all dose groups was […]: TPGS: PEG400 (70%:20%:10%). Blood samples were collected from all treatment groups at 0 h (predose), 0.083, 0.25, 0.5, 1, 2, 4, 6, 8, and 24 h after dosing. Antalarmin, BMK-I-152, BMK-C203, and BMK-C205 concentrations in the plasma samples were determined via LC‒MS/MS (LLOQ was 1 ng/mL for CRF1R antagonists). PK parameter estimates were determined using the serial time-course profiles for plasma concentrations of three male rats per group via noncompartmental analysis using commercially available software (Phoenix WinNonlin, version 8.1, Pharsight Corporation, Mountain View, CA).

C57BL/6J mice [1] = test: Tail suspension test (TST); format: in vivo; settings: 30 mg/kg orally for 3 days, test 2 h after third dose, last 4 min of 6 min
Method: (§1) C57BL/6J mice (male, 9–10 weeks old) were used for the behavioral tests. All mice were maintained under a 12:12-h light–dark cycle (lights on at 7:00 A.M.) with access to food and water ad libitum. Animal care and handling were performed according to guidelines by the Institutional Animal Care and Use Committee of Yonsei University (Seoul, Korea). Antalarmin, BMK-C203, and BMK-C205 were dissolved in peceol: TPGS: PEG400 (vehicle) (70%:20%:10%, respectively) and administered orally at a dose of 30 mg/kg for 3 days at 24-h intervals. All behavioral tests were conducted 2 h after the third drug was administered during light periods of the circadian cycle. TSTs were performed to verify the effect of CRF1R antagonists on depressive-like behavior. Each mouse was suspended by its tail on a bar 30 cm above the ground for 6 min using adhesive tape. Their movements were recorded by a camera and analyzed using the same parameters via EthoVision XT 8.5 software (Noldus Technologies). Immobility times during the last 4 min of the task were measured. Each mouse was placed in an open field (40 cm × 40 cm × 40 cm chamber) for 1 h to conduct an open field test (OFT) and test locomotion. Their locomotion was recorded and analyzed using EthoVision XT 8.5.

C57BL/6J mice [2] = test: Open field test (OFT); format: in vivo; settings: 30 mg/kg orally for 3 days, 1 h open field
Method: as §1

ACTH serum levels = test: Serum ACTH level after TST (ELISA); format: in vivo, mice; settings: 30 mg/kg orally for 3 days, immediately after TST
Method: (§2) The mice were anesthetized via intraperitoneal injections of 2,2,2-tribromoethanol (300 mg/kg, Sigma-Aldrich) immediately after the TST and before blood from the heart was sampled. Blood samples were collected in plastic tubes and incubated at room temperature for at least 2 h. The sera were extracted after centrifugation at 13,000×g for 10 min at 4 °C. CORT levels were determined via LC‒MS analysis. Serum (10 µL) was mixed with 20 μL of an internal standard solution (d4-cortisol) to prepare the samples. Subsequently, 100 μL of acetonitrile was added, and the mixture was centrifuged at 16,000×g for 10 min for protein precipitation. The supernatants (60 μL) were transferred into an autosampler vial, and 30 μL of water was added for efficient separation via high-performance liquid chromatography (HPLC). LC‒MS was performed with a triple quadrupole mass spectrometer coupled with HPLC using a C18 reversed-phase column. CORT levels were determined using a calibration curve constructed using CORT-spiked mouse serum. Serum samples (20 μL) were analyzed using a commercially available ELISA kit for ACTH (ab263880, Abcam) to measure ACTH serum levels.

CORT serum levels = test: Serum CORT level after TST (LC-MS); format: in vivo, mice; settings: 30 mg/kg orally for 3 days, immediately after TST
Method: as §2

CRF1R [3] = target: T1, CRF1R (Homo sapiens, UniProt P34998); test: Calcium mobilization assay (hCRF1R Ca2+ antagonism); format: cell-based; settings: for IC50 (in words): reason for not selecting
T1 construct: HEK-Gα15 cells (Eurofins Scientific) transfected with CRF1R; host or cells: HEK-Gα15 cells
T1 sequence (P34998 24-415): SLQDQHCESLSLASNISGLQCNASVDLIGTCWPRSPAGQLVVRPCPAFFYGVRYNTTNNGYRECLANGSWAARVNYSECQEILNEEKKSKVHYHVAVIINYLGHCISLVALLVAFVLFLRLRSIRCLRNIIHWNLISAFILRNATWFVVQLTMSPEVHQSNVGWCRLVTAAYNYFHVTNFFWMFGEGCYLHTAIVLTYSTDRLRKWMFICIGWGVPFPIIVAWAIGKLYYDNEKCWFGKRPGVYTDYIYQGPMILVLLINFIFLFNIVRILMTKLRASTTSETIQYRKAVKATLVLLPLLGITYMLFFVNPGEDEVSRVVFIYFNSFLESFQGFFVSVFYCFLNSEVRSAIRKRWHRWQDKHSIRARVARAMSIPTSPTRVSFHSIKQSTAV
Method: HEK-Gα15 cells (Eurofins Scientific) transfected with CRF1R were plated in 96-well plates at a density of 50,000 cells/100 μL per well and incubated overnight. The next day, the cells were incubated with a Calcium 6 reagent (Molecular Devices) containing 0.5 mM probenecid (Sigma) at 37 °C for 1 h before adding compounds or dimethyl sulfoxide DMSO (positive and negative control; final concentration 0.1%). After incubation at 37 °C for 1 h, 50 μL urocortin (final concentration 2 nM) (Tocris) was dispensed into the well with FLIPR-tetra (Molecular Devices). […] Intracellular calcium changes were recorded at excitation and emission wavelengths of 470–495 and 515–575 nm, respectively. Relative fluorescence units (RFU) were calculated as the fluorescence signal maximum minus the signal minimum for 30 s after addition. The graphs and IC50 concentrations were calculated using GraphPad Prism 6 software.

[4] = Microsomal stability assay, human liver microsomes; format: in vitro ADME
Method: LC‒MS/MS was performed on a TSQ Vantage (Thermo, USA) coupled with a Nexera XR LC system (Shimadzu, Japan)[32]. The separation was performed on a Kinetex C18 column (2.1 × 100 mm, 2.6 µm, Phenomenex, USA) using a mobile phase of 0.1% formic acid and acetonitrile containing 0.1% formic acid. A gradient program was used for elution at a flow rate of 0.3 mL/min. The data were acquired using multiple-reaction monitoring (MRM) in positive mode.

[5] = Microsomal stability assay, rat liver microsomes; format: in vitro ADME; settings: 1 μM, n = 3
Method: The incubation mixtures consisted of 0.5 mg/mL human (Corning, #452117) and rat liver microsomes (Corning, #452701), 0.1 M phosphate buffer (pH 7.4), NADPH regeneration system, and substrates (CRF1R antagonist compounds, 1 µM) in a total volume of 100 μL. […] LC‒MS/MS was performed on a TSQ Vantage (Thermo, USA) coupled with a Nexera XR LC system (Shimadzu, Japan)[32]. The separation was performed on a Kinetex C18 column (2.1 × 100 mm, 2.6 µm, Phenomenex, USA) using a mobile phase of 0.1% formic acid and acetonitrile containing 0.1% formic acid. A gradient program was used for elution at a flow rate of 0.3 mL/min. The data were acquired using multiple-reaction monitoring (MRM) in positive mode. Detection of the ions was performed by monitoring the m/z transition of 494.1 → 336.1 for BMK-I-152, 598.1 → 233.2 for BMK-C203, and 488.1 → 434.1 for BMK-C205.

CYP1A2 = target: T2, CYP1A2 (Homo sapiens, UniProt P05177); test: CYP inhibition assay CYP1A2 (phenacetin O-demethylase); format: in vitro ADME
T2 construct: 0.25 mg/mL human liver microsomes; from tissue; host or cells: human liver microsomes
T2 sequence (P05177 1-516): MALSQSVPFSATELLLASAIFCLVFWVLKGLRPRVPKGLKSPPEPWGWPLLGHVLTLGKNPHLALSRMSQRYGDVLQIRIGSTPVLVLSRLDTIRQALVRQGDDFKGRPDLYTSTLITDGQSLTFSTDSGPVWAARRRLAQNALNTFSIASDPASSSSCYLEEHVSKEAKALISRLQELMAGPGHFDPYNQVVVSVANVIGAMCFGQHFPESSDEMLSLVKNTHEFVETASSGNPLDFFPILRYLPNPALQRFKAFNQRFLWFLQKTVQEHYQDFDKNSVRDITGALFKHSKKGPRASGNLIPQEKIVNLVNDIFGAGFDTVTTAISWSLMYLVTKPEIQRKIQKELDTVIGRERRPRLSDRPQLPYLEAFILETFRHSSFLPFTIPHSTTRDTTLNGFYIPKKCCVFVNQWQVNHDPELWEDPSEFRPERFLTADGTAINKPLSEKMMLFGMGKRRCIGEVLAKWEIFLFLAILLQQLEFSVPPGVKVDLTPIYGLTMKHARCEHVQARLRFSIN

CYP2C9 = target: T3, CYP2C9 (Homo sapiens, UniProt P11712); test: CYP inhibition assay CYP2C9 (diclofenac 4-hydroxylase); format: in vitro ADME
T3 construct: 0.25 mg/mL human liver microsomes; from tissue; host or cells: human liver microsomes
T3 sequence (P11712 whole entry): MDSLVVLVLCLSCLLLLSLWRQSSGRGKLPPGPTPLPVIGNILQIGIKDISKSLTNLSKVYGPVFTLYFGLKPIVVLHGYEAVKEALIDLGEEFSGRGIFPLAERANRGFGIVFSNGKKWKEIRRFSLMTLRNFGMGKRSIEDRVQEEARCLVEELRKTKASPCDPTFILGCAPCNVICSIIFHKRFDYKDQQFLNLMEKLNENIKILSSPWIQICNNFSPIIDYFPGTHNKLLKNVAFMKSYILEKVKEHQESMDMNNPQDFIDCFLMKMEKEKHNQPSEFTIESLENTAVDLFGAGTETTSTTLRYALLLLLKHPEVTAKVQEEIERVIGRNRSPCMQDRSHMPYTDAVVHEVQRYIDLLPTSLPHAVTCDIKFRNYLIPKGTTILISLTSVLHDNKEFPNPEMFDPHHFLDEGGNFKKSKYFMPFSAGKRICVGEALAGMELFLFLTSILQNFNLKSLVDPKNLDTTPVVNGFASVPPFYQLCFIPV

CYP2C19 = target: T4, CYP2C19 (Homo sapiens, UniProt P33261); test: CYP inhibition assay CYP2C19 (S-mephenytoin 4-hydroxylase); format: in vitro ADME
T4 construct: 0.25 mg/mL human liver microsomes; from tissue; host or cells: human liver microsomes
T4 sequence (P33261 whole entry): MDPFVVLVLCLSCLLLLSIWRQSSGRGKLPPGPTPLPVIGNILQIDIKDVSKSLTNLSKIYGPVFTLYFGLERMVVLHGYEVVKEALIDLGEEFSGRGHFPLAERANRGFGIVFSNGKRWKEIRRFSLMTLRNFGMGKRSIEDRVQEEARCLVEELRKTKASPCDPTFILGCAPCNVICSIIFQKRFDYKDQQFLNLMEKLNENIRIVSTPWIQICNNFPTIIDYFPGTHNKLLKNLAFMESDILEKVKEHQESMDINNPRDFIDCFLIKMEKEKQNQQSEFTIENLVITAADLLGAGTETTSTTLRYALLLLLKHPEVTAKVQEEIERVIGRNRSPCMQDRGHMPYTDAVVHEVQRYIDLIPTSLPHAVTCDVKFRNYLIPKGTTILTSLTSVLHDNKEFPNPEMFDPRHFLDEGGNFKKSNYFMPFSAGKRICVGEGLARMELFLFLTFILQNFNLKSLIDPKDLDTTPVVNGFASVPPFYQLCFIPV

CRF1R [6] = target: CRF1R; set-up: method as in PMID 21308801; settings: cited from earlier work
[7] = set-up: method as in PMID 21308801; settings: liver microsomal stability assay; cited from earlier work
CYP3A4 = CYP3A4 (Homo sapiens, UniProt P08684); test: CYP inhibition assay CYP3A4 (midazolam 1'-hydroxylase); settings: 10 μM, human liver microsomes, n = 3
CYP3A4, sequence (P08684 whole entry): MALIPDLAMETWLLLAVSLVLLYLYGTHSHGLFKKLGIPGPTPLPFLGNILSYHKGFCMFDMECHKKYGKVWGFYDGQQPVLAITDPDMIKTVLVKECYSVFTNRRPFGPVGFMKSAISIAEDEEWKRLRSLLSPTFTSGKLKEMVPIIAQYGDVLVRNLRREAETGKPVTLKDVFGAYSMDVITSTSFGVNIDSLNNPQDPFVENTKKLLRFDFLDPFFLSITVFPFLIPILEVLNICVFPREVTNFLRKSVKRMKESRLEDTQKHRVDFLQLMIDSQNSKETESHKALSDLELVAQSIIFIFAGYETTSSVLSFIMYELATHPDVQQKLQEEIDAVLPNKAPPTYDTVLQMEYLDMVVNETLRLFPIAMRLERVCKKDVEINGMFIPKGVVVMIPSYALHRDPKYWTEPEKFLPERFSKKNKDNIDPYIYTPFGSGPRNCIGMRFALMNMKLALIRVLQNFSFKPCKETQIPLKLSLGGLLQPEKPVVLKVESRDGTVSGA

CYP2D6 = CYP2D6 (Homo sapiens, UniProt P10635); test: CYP inhibition assay CYP2D6 (dextromethorphan O-demethylase); settings: 10 μM, human liver microsomes, n = 3
CYP2D6, sequence (P10635 whole entry): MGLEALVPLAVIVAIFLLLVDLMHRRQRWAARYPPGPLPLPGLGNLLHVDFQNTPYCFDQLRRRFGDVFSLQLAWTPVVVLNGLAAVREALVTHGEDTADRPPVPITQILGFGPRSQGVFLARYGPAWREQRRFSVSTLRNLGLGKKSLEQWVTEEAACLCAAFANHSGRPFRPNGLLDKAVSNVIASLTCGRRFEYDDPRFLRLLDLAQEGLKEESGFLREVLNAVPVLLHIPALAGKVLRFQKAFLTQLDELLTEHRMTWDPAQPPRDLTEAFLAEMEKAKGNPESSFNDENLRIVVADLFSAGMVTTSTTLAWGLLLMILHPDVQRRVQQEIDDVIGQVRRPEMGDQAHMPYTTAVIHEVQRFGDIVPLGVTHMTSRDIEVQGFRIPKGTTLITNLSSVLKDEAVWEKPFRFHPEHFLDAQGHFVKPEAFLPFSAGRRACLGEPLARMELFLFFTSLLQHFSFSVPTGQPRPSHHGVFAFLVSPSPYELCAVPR

[8] = 10 μM, human liver microsomes, n = 3

CCCCN(CC)c1nc(C)nc2c1c(C)c(C)n2-c1c(C)cc(C)cc1C [Antalarmin, reference compound]
AUC(0-t) (PK studies in rats; iv, I.V, 5 mg/kg): 4370 ng·h/mL
half-life (PK studies in rats; iv, I.V, 5 mg/kg): 3.09 h
AUC(0-t) (PK studies in rats; po, P.O, 10 mg/kg): 660 ng·h/mL
Cmax (PK studies in rats; po, P.O, 10 mg/kg): 146 ng/mL
Tmax (PK studies in rats; po, P.O, 10 mg/kg): 4 h
bioavailability (PK studies in rats; po, P.O, 10 mg/kg): 7.6%
half-life (PK studies in rats; po, P.O, 10 mg/kg): 4.08 h
TST immobility time versus vehicle (C57BL/6J mice [1]): no significant difference
OFT locomotion / overall moving distance (C57BL/6J mice [2]): did not differ among groups
serum ACTH level versus vehicle (ACTH serum levels): no significant difference
serum CORT level versus vehicle (CORT serum levels): no significant difference

CCCCN(CCCC(F)(F)F)c1nc(C)nc2c(-c3c(OC)cc(Br)cc3OC)c(C)nn12 [BMK-C207]
IC50 (in words) (CRF1R [3]): high IC50 values

COc1cc(Br)cc(OC)c1-c1c(C)nn2c(N(CCCC(F)(F)F)CC3CC3)nc(C)nc12 [BMK-C209]
IC50 (in words) (CRF1R [3]): high IC50 values

CCCN(CCCC(F)(F)F)c1nc(C)nc2c(-c3c(OC)cc(Br)cc3OC)c(C)nn12 [BMK-C210]
IC50 (in words) (CRF1R [3]): high IC50 values

COCCN(CCOC)c1nc(C)nc2c(-c3c(OC)cc(Br)cc3OC)c(C)nn12 [BMK-I-152]
pIC50 (CRF1R [3]; HEK-Gα15 cells transfected with CRF1R, urocortin 2 nM, n = 3): 7.59
IC50 fold lower than that of Antalarmin (CRF1R [3]; hCRF1R Ca2+ antagonism assay): ~12 fold
IC50 fold lower than that of CP376395 (CRF1R [3]; hCRF1R Ca2+ antagonism assay): ~ 55 fold
Liver microsomal stability, Human (percentage remaining after 30 min) ([4]; 1 μM, n = 3): 27.7 ± 3.87%
liver microsomal stability (remaining) ([4]; in almost all species (human and rat liver microsomes), 30 min): below 35%
Liver microsomal stability, Rat (percentage remaining after 30 min) [5]: 35.3 ± 5.85%
CYP1A2, percentage of control activity (CYP1A2; [8]): 98.8 ± 1.8 percentage of control activity
CYP2C9, percentage of control activity (CYP2C9; [8]): 89.9 ± 7.0 percentage of control activity
CYP2C19, percentage of control activity (CYP2C19; [8]): 83.2 ± 5.0 percentage of control activity
AUC(0-t) (PK studies in rats; iv, I.V, 1 mg/kg): 913 ng·h/mL
half-life (PK studies in rats; iv, I.V, 1 mg/kg): 13.5 h
AUC(0-t) (PK studies in rats; po, P.O, 10 mg/kg): 3080 ng·h/mL
Cmax (PK studies in rats; po, P.O, 10 mg/kg): 267 ng/mL
Tmax (PK studies in rats; po, P.O, 10 mg/kg): 6.67 h
bioavailability (PK studies in rats; po, P.O, 10 mg/kg): 33.8%
half-life (PK studies in rats; po, P.O, 10 mg/kg): 5.66 h
pKi (CRF1R [6]): 9.46
half-life [7]: < 0.5 h
CYP3A4, percentage of control activity (CYP3A4): 99.8 ± 3.0 percentage of control activity
CYP2D6, percentage of control activity (CYP2D6): > 100 ± 1.6 percentage of control activity

CC(=O)N1CCN(c2ccc(OCC3COC(Cn4ccnc4)(c4ccc(Cl)cc4Cl)O3)cc2)CC1 (stereo not shown) [Ketoconazole, reference compound]
CYP1A2, percentage of control activity (CYP1A2; reference chemical at 0.1 μM): 94.3 ± 5.3 percentage of control activity
CYP2C9, percentage of control activity (CYP2C9; reference chemical at 0.1 μM): 94.0 ± 9.2 percentage of control activity
CYP2C19, percentage of control activity (CYP2C19; reference chemical at 0.1 μM): > 100 ± 12.9 percentage of control activity
